# Measurements as given in US8594942B2, “Computational method and system for identifying network patterns in complex biological systems data” (Metabolon, Inc., priority 2004, dated 2013).
# Entries after “also recorded” stand apart in the source; their conditions may differ.
# How the values were obtained:
# rats = settings: cited from earlier work
# Male Fischer 344 rats = assay: Acetaminophen-induced liver toxicity study: biochemical profiling (LC-MS) of rat liver; format: in vivo; settings: rat liver metabolite, single dose p.o.
# Procedure: An acetaminophen-induced liver toxicity study was performed as follows. Male Fischer 344 rats were administered a single dose of acetaminophen (APAP) at 0, 50, 150, 1500 or 2000 mg/kg p.o. (6 rats per group). The 150 mg/kg dose is equivalent to a low overdose level in humans (˜10 g) and 1500 mg/kg is a low toxic dose in rats. The rats were sacrificed at 6, 18, 24, and 48 hr post dosing. Livers of the rats were processed for biochemical profiling, histopathology and gene expression analysis. For the 0, 50 and 1500 mg/kg dose groups, rat urine was collected at −24-0, 0-6, 6-24, and 24-48 hr relative to dosing. Similarly, rat serum was collected at 48 hr for the 0, 50 and 1500 mg/kg groups.
# Rat tissue was prepared for LC-MS analysis as follows. Rat liver tissue samples were frozen upon collection. A slice of each frozen sample was placed into a mortar, covered with liquid nitrogen, and ground with a pestle. 100 mg of ground sample was placed in a cryovial, extraction fluid and beads were added, and the sample was further ground and then centrifuged. The supernatant was transferred to a clean cryovial, centrifuged again, and then transferred to a well of a 96-well plate.
# LC-MS analysis of the rat tissue and biofluid samples was performed on an Applied Biosystems Mariner liquid chromatograph coupled with a time of flight mass spectrometer (LC-TOF). The mass resolution for the mass spectrometer employed in this experiment was 0.200 amu. One LC was employed with a splitter that allowed for the eluent to be delivered to two TOF MS instruments, one operating in positive ionization mode, the other in negative ionization mode. Compounds detected by LC-MS with an electrospray ion source were cataloged based on retention times and mass-to-charge ratio (m/z) of the ions characteristic of each peak. Mass spectrometric data were collected from 80-900 amu. Raw LC-MS data were processed using the commercially available software TARGETDB (Thru-Put Systems, Inc., Orlando, Fla.).
# A targeted list of relative responses for peaks and peaks annotated as known compounds was produced from the LC/MS data for the rat liver samples described in Example 1 and is illustrated in FIG. 1. The resulting biochemical profiling data was subjected to Principal Component Analysis (PCA), showing trends over both dose and time (see FIG. 2). The third principal component (x-axis) is plotted against the second principal component (y-axis) for each of the 6, 18, 24 and 48 hr time points for acetaminophen doses 150 mg/kg (yellow), 1500 mg/kg (black), and 2000 mg/kg (green). Each data point represents the average for six animals.
# Mathematical models of the trends observed in the PCA plot were developed. […] Trend 1 is a trend of increasing distance from control as the dose increases at any given time point. Trend 2 is a trend of change from one time point to the next that is in the same direction and of increasing magnitude as dose increases. Each of the relative response peaks in the liver biochemical profiling dataset was tested for adherence to the mathematical models to locate the subset of peaks that followed the observed trends. The peaks that adhered to the models were identified as the subset of most interest for further analysis of acetaminophen-induced liver changes. To further investigate the mode of action of acetaminophen, the known compounds in the identified subset were further analyzed using the methods and systems of the present invention.
# Using the methods and systems of the present invention, another graph was generated depicting the 15 components of interest, from Example 3 above, that were closely related enough to fit on a single graph. […] It should be noted that not only is the perturbation of the 15 compounds of interest depicted in FIG. 5, but the experimental result from any compound measured and depicted in the network of FIG. 5 is shown. […]
smiles,measurement,setting,value
CC(=O)Nc1ccc(O)cc1 [acetaminophen],low toxic dose in rats,rats,1500 mg/kg
same,Status of L-asparagine,Male Fischer 344 rats; FIG. 5 network component 2,Down Regulated
same,Status of ‘N’-acetyl-“b”-D-glucosamine,Male Fischer 344 rats; FIG. 5 network component 7,Down Regulated
same,Status of “a”-ketoglutarate,Male Fischer 344 rats; FIG. 5 network component 8,Down Regulated
same,Status of L-glutamine,Male Fischer 344 rats; FIG. 5 network component 10,Down Regulated
same,Status of L-arginine,Male Fischer 344 rats; FIG. 5 network component 14,didn't undergo a significant change; also recorded: No Significant Change
same,Status of L-cystathionine,Male Fischer 344 rats; FIG. 5 network component 17,Down Regulated
same,Status of “a”-hetobutyrate,Male Fischer 344 rats; FIG. 5 network component 18,Down Regulated
same,Status of L-cysteine,Male Fischer 344 rats; FIG. 5 network component 19,Down Regulated
same,Status of L-serine,Male Fischer 344 rats; FIG. 5 network component 21,Down Regulated
same,Status of “o”-phosphoethanolamine,Male Fischer 344 rats; FIG. 5 network component 23,Up Regulated
same,Status of (‘S)-lactate,Male Fischer 344 rats; FIG. 5 network component 25,Down Regulated
same,Status of Pyruvate,Male Fischer 344 rats; FIG. 5 network component 26,Down Regulated
same,Status of Phospho‘enol’pyruvate,Male Fischer 344 rats; FIG. 5 network component 29,No Significant Change
same,Status of GTP,Male Fischer 344 rats; FIG. 5 network component 30,Down Regulated
same,Status of GDP,Male Fischer 344 rats; FIG. 5 network component 31,didn't undergo a significant change; also recorded: No Significant Change
same,Status of Phenylpyruvate,Male Fischer 344 rats; FIG. 5 network component 32,Up Regulated
same,Status of L-phenylalanine,Male Fischer 344 rats; FIG. 5 network component 33,Down Regulated
same,Status of L-tyrosine,Male Fischer 344 rats; FIG. 5 network component 34,Down Regulated
same,Status of L-dopa,Male Fischer 344 rats; FIG. 5 network component 35,Down Regulated
same,Status of glutathione,Male Fischer 344 rats; FIG. 5 network component 37,Up Regulated
